The values below come from article PMC6401629, “Lipid Nanoparticles-Encapsulated YF4: A Potential Therapeutic Oral Peptide Delivery System for Hypertension Treatment” (Frontiers in Pharmacology, 2019).

By Cmax is commonly meant the peak of the concentration-time curve. Broadly, the AUC(0-inf) is the area under the concentration-time curve extrapolated to infinity. Low values mean low exposure, high ones high exposure. As usually defined, the MRT is a mean duration of stay, worked out from the concentration-time curve.

Residues, ends and D or L forms follow the SMILES beside them.

Data set [1] is described as follows: Pharmacokinetics after a single gavage administration. The settings on record: SD rats, single gavage 1.2 mg/kg, plasma, DAS 2.0, mean ± SD, n = 6. The class given is in vivo. From the text: Six 8-week-old male SD rats with weight between 180 to 220 g were purchased from the Laboratory Animal Center of Sichuan University (Sichuan University, Chengdu, Sichuan, China). The animals were maintained under 12-hour dark and light cycles at 22℃ and free access to food and water. After a week of adaptation, these SD rats were admitted to experiments. Absorption of YF4 in SD rats following a single oral administration of YF4 was investigated. At the end of the experiment, the rats were sacrificed inside an isoflurane chamber to avoid unnecessary suffering. The experiments were approved and supervised by the State Key Laboratory of Biotherapy Animal Care and Use Committee (Sichuan University, Chengdu, Sichuan, China).
SD rats were used to investigate the […] of YF4. Rats were chosed randomly for oral administration of free YF4 at the dose of 1.2 mg/kg (n=6), respectively. Before the experiment, all rats were fasted for 12 h with free access to water. Each rat was administered an oral volume of 0.5 mL/100 g. Approximate 200 μL of blood samples were collected from the orbit into a heparin zed centrifuge tube before and at 0.083, 0.25, 0.5, 0.75, 1, 1.5, 2, 3, 4, 6, 8, 12 h post-dosing. All blood samples were centrifuged at 3500 rpm (4 ℃) for 10 min. The plasma samples were collected and stored at -20 ℃ until analyzed by Drug and Statistics 2.0 (DAS 2.0) (Mathematical Pharmacology Professional Committee of China, Shanghai, China).

In data set [2] the test system is spontaneously hypertensive rats (SHRs). The data set can be described thus: In vivo antihypertensive efficacy, tail-cuff blood pressure. The arrangement: species or system rat. The settings on record: single oral dose 5 mg/kg, 2 h after administration, n = 6.
Source text: Twelve weeks old male spontaneously hypertensive rats (SHRs) with a circa weight between 250 and 320 g were purchased from Beijing Vital River Laboratory Animal Technology Co., Ltd. After a week of adaption, animals were admitted to experiments (six per group). […] The rats were free access to food and water. […] In this study, groups of rats were used for the oral administration of saline group, Captopril group vs. YF4 group, YF4 vs. YF4-NPs vs YF4-LNPs.
Simultaneously, the captopril and the saline water were used as the positive control and control group, respectively. SHRs were randomly divided into three groups (n = 6). Control group were treated with 0.9% saline water, and the other groups were treated with captopril (5 mg/kg) or the same dose of YF4 dissolved in saline water. All rats were administered at a single oral dose.
In YF4-LNPs pharmacodynamics study, the SHRs were randomly divided into three groups (n = 6). Control group were treated with 0.9% saline water, the other groups of SHRs were treated withYF4 and YF4-LNPs. All the groups of rats were given the same dose at 0.8 mg/kg body weight. Blood pressure was indirectly recorded as described above. […] All the SBP were measured for three times to get the average value at each time point.

For `CC(C)C[C@H](NC(=O)CNC(=O)[C@@H](N)Cc1ccc(O)cc1)C(=O)N[C@@H](Cc1ccccc1)C(=O)O` [YF4, Tyr-Gly-Leu-Phe] (H-YGLF-OH), the Cmax in data set [1] worked out at 15.47 ± 3.05 mg/L. In data set [1] (male, rat, po), the AUC(0-inf) was 45400 ± 9420 ng·h/mL. For the same compound, the CL/F in data set [1] (male, rat, po, read-out: CLz/F (converted)) was 0.333 mL/min/kg. Further, the MRT in data set [1] (male, rat, po, read-out: MRT(0-t)) was 3.17 ± 0.68 h. Moreover, the half-life in data set [1] (male, rat, po, read-out: T1/2z (half-life) (converted)) was 175 ± 3 min.
On to `C[C@H](CS)C(=O)N1CCC[C@H]1C(=O)O` [captopril], for which the “blood pressure lowing (BPL) effect compared with saline group” value in data set [2] was 23.0 mmHg.
